Like-named read-outs stand apart in the source and are kept apart here.
Tests used:
[1] = target: T1, HIV reverse transcriptase (Human immunodeficiency virus type 1 group M subtype B, UniProt P03366); test: HIV reverse transcriptase inhibition (TCA precipitation assay / scintillation proximity assay); format: biochemical
T1 construct: Recombinant HIV reverse transcriptase; made in house
Description: 5. Reverse Transcriptase Activity
RT inhibition was determined by a TCA precipitation assay as follows:
TCA-precipitation assay for HIV reverse transcriptase.
A heteropolymeric primer template was prepared by hybridizing a 691 nucleotide RNA molecule derived from the gag region of HIV [(+)-GAG^691, prepared as described in Mizrahi, V., Biochemistry, 28:9088-9094 (1989)], to a synthetic oligodeoxynucleotide (sequence: 5'-[…]-3'). The primer template (10 nM) was incubated in reaction buffer (50 mM Tris-HCl, pH 7.8, 80 mM KCl, 6 mM MgCl2, 10 mM DTT, 0.01 mg/ml BSA) with inhibitor, 10 μM dGTP, 10 μM dATP, and 28 μCi/ml of [3H]TYP (Amersham). Recombinant HIV reverse transcriptase (prepared as described in Mizrahi, et al., Arch. Biochem. Biophys., 273: 347-358, (1989)) was added to a concentration of 2-8 nM, and the reaction was incubated for 15 min at 37° C. (total reaction volume, 50 μL). The reaction was terminated with 50 μL of 20% TCA in 100 mM sodium pyrophosphate (ice cold) and chilled on ice for 15-30 min. The reaction mixture was filtered through glass fiber filters using a cell harvester, and the radioactivity that adhered to the filter was quantified using an LKB betaplate counter.
Scintillation proximity assay for HIV reverse tanscriptase.
HIV reverse transcriptase SPA enzyme assay system kits were obtained from Amersham (item number NK8972) and used as described in the package insert. Briefly, 10 μL of primer-template as supplied in the kit was added to 70 μL of dNTP/[3H]TTP solution. Ten μL of the inhibitor to be tested was added, followed by recombinant HIV RT (prepared as above) to a concentration of 2 nM. The reaction mixture was incubated for 10 min at room temperature and then terminated with 40 μL of 0.5M EDTA. Ten μL of streptavidin-SPA beads were added to each tube and the incorporated radioactivity was measured in an LKB betaplate counter.

[2] = Cellular cytotoxicity in Molt4 cells; format: cell-based; conditions: human, Measured via XTT
Description: Cytotoxicity was tested with the CD4+cell line, Molt4. The compounds of the present invention were dissolved in DMSO in order to maximize solubility and provide a common solvent system. […] Cytotoxicity was measured as the inhibition of ^3 H-thymidine incorporation into the host cell's genome after exposure to the compounds of the present invention.

[3] = target: T2, HIV RT in which amino acid #181 was changed from tyrosine to isoleucine (Human immunodeficiency virus type 1 BH10, UniProt P03366, Y780I); test: Inhibition of TIBO-resistant mutant HIV RT, amino acid #181 tyrosine to isoleucine; format: biochemical; conditions: Tyr181 to isoleucine mutant
T2 construct: wild type recombinant per Mizrahi 1989

[4] = target: T3, HIV RT in which amino acid #181 was changed from tyrosine to cysteine (Human immunodeficiency virus type 1 BH10, UniProt P03366, Y780C); test: Inhibition of TIBO-resistant mutant HIV RT, amino acid #181 tyrosine to cysteine; format: biochemical; conditions: Tyr181 to cysteine mutant
T3 construct: wild type recombinant per Mizrahi 1989

HIV-1 (IIIB Stock) = test: HIV-1 infectivity inhibition assay (Molt4 cells); format: cell-based; conditions: for IC50: read-out: IC50 (50% Inhibitory concentration for cytopathicity by HIV); for Selective Index (Cytotoxycity/IC50 ratio): cytotoxicity/IC50 ratio, 10080 min
Description: 6. HIV-1 Infectivity Inhibition Assay
In addition, the compounds of the present invention were assayed via a virus neutralization, or HIV infectivity assay as follows:
Bulk Infection of Molt4 Cells.
Bulk infection is used to overcome variations inherent in individual well infections. Sufficient cells and diluted virus stock for an experiment are mixed together in a T-75 flask (Corning) so that the following ratio per well of virus and cells is maintained: 100 μl containing 45 TCID50 of virus (IIIB Stock) mixed with 100 μl of Molt4 cells (3×10^4 cells/well or 3×10^5 /ml). Virus is allowed to adsorb for 90 min. at 37° C. in CO2 incubator. […] of cell/virus mixture is then aliquoted into individual wells of a 24-well plate.
Appropriate 1/200 volumes of inhibitor dilutions at 200X final concentrations in 100% DMSO are added [i.e., to the 497.5 μl of virus infected cells, 2.5 μl of inhibitor dilution of 100% DMSO or 100% DMSO alone (for virus controls) is carefully added to appropriate wells]. Dilution series are generally 5-fold dilutions starting from 50 μg/ml.
Cultures are fed with RPMI 1640+20% FBS containing 1× concentration of inhibitor series (i.e., starting concentrations present at beginning of experiment) at the following times and volumes:
(Final volume in each well=1.5 ml)
Culture supernatants are harvested at 7 days post infection. Generally 90 μl of culture medium is transferred into a 96-well culture plate containing 10 μl 5% Triton X-100 in PBS. The plate is sealed, wiped with gauze saturated with 70% ethanol+detergent and stored at -80° C. until Micro RTs or p24 ELISAs are done. The results of HIV infectivity,inhibition is presented below:
^2 50% Inhibitory concentration for cytopathicity by HIV

[5] = test system: human immunodeficiency virus-1 reverse transcriptase (HIV-1 RT); conditions: literature, Kashman et al. 1992; cited from earlier work
[6] = recombinant HIV RT, RT inhibition results table of Example 5, read-out: IC50
[7] = Human immunodeficiency virus 1, IIIB, MOLT-4, 168 h
[8] = Compounds 22 and 23, Example 7, read-out: Reverse Transcriptase Activity: IC50

C[C@@H]1C(=O)c2c(c3c(c4c(-c5ccccc5)cc(=O)oc24)OC(C)(C)C=C3)O[C@@H]1C [Inophyllum E]
IC50 [1, 6]: > 50 µM | CC50 [2]: 6.2 µM

CCCc1cc(=O)oc2c3c(c4c(c12)OC(C)(C)C=C4)O[C@H](C)[C@@H](C)[C@@H]3O (relative stereo) [(±)-20, (±)-Calanolide A]
HIV-1 RT-inhibitory potency compared with natural calanolide A (in words) ([1]; synthetic racemate vs data reported for natural calanolide A): in full agreement with the data reported for natural calanolide A

C[C@@H]1[C@@H](C)Oc2c3c(c4c(-c5ccccc5)cc(=O)oc4c2[C@@H]1O)OC(C)(C)C=C3 [Inophyllum P]
inhibition of mutant HIV RT relative to wild-type (in words) [3]: potency comparable to that observed with wild-type HIV RT | inhibition of mutant HIV RT relative to wild-type (in words) [4]: potency comparable to that observed with wild-type HIV RT | activity in the RT-ase assay (in words) [1]: sub-micromolar activity | IC50 [1, 6]: 0.6 µM | CC50 [2]: 25 µM | IC50 (HIV-1 (IIIB Stock); [7]): 1.6 µM | Selective Index (Cytotoxycity/IC50 ratio) (HIV-1 (IIIB Stock)): 16

C[C@@H]1[C@H](O)c2c(c3c(c4c(-c5ccccc5)cc(=O)oc24)O[C@H]2[C@@H]3C2(C)C)O[C@@H]1C [Inophyllum G2]
IC50 [1, 6]: > 50 µM

CCCc1cc(=O)oc2c3c(c4c(c12)OC(C)(C)C=C4)O[C@@H](C)C[C@@H]3O (relative stereo) [Compound 22]
IC50 [1, 8]: 1.78 µM

C[C@H]1[C@@H](C)Oc2c3c(c4c(-c5ccccc5)cc(=O)oc4c2[C@@H]1O)OC(C)(C)C=C3 [Inophyllum D]
IC50 [1, 6]: 30 µM | CC50 [2]: 15 µM

C[C@H]1[C@H](O)c2c(c3c(c4c(-c5ccccc5)cc(=O)oc24)OC(C)(C)C=C3)O[C@@H]1C [Inophyllum B]
inhibition of mutant HIV RT relative to wild-type (in words) [3]: potency comparable to that observed with wild-type HIV RT | inhibition of mutant HIV RT relative to wild-type (in words) [4]: potency comparable to that observed with wild-type HIV RT | activity in the RT-ase assay (in words) [1]: sub-micromolar activity | IC50 [1, 6]: 0.3 µM | CC50 [2]: 55 µM | IC50 (HIV-1 (IIIB Stock); [7]): 1.4 µM | Selective Index (Cytotoxycity/IC50 ratio) (HIV-1 (IIIB Stock)): 39

CCCc1cc(=O)oc2c3c(c4c(c12)OC(C)(C)C=C4)O[C@@H](C)C[C@H]3O (relative stereo) [Compound 23]
IC50 [1, 8]: 0.6 µM

C/C=C(\C)C(=O)c1c(OC)c2c(c3c(-c4ccccc4)cc(=O)oc13)OC(C)(C)C=C2 [Calophyllolide]
IC50 [1, 6]: > 50 µM | CC50 [2]: 4.5 µM

tetrahydro-imidazo[4,5,1-jk][1,4]-benzodiazepin-2-(1H)-one and -thione [TIBO, reference compound]
IC50 (HIV-1 (IIIB Stock); Molt4 cells, harvest 7 days post infection): 0.19 µM | Selective Index (Cytotoxycity/IC50 ratio) (HIV-1 (IIIB Stock)): 100

C[C@H]1Oc2c3c(c4c(-c5ccccc5)cc(=O)oc4c2C(=O)[C@@H]1C)OC(C)(C)C=C3 [Inophyllum C]
IC50 [1, 6]: > 50 µM | CC50 [2]: 18 µM

CCCc1cc(=O)oc2c3c(c4c(c12)OC(C)(C)C=C4)O[C@H](C)[C@@H](C)[C@@H]3O [Calanolide A]
inhibition of HIV-1 RT (in words) [5]: potent inhibitor

C[C@@H]1[C@H](O)c2c(c3c(c4c(-c5ccccc5)cc(=O)oc24)O[C@@H]2[C@H]3C2(C)C)O[C@@H]1C [Inophyllum G1]
IC50 [1, 6]: > 50 µM

C[C@@H]1[C@H](O)c2c(c3c(c4c(-c5ccccc5)cc(=O)oc24)OC(C)(C)C=C3)O[C@@H]1C [Inophyllum A]
IC50 [1, 6]: 9 µM | CC50 [2]: 33 µM

From patent publication US5723631A, “Coumarin derivatives as retroviral inhibitors” (SmithKline Beecham Corporation, priority 1995, dated 1998)
